Test results published in article PMC10222464, “Pharmacokinetic Study and Metabolite Identification of CAM106 in Rats by Validated UHPLC-MS/MS” (Pharmaceuticals, 2023).
Entries after “also recorded” stand apart in the source; their conditions may differ. Read-outs that look alike come from different tables or passages of the source.

Key:
[1] = in vivo
influenza virus B [2] = details: cited from earlier work
influenza virus B [3] = assay: Anti-influenza activity (IC50) against influenza virus B; format: cell-based; details: CAM106 versus rupestonic acid
[4] = Pharmacokinetic study in rats after oral and intravenous administration (UHPLC-MS/MS, non-compartment analysis); format: in vivo, Sprague Dawley (SD) rats; details: for MRT inf: read-out: MRT0–inf; for MRT last: read-out: MRT0–t
Method: By using the UHPLC–MS/MS method, we successfully performed accurate quantification of CAM106 in rat plasma, and a non-compartment analysis was used to characterize the pharmacokinetic profiles of CAM106. […] After intravenous administration, T1/2 and Vd were 1.34 ± 0.64 h and 16624.89 ± 8171.11 mL/kg, respectively. […] The mean retention times after oral and intravenous administration were 3.42 ± 0.73 h and 0.63 ± 0.17 h, respectively.
All twelve male Sprague Dawley (SD) rats (weight 200 ± 20 g) were purchased from Xinjiang Medical University (Xinjiang, China). […] For the pharmacokinetic study, twelve rats were randomized into two groups (n = 6). The rats were fasted overnight before the experiment but had free access to water. […] For the oral administration group, CAM106 was intragastrically administered to the rats at a dose of 180 mg/kg. Approximately 0.2 mL of blood was drawn from the ophthalmic veins at 0, 0.25, 0.5, 0.75, 1, 1.5, 2, 4, and 10 h. For intravenous administration, CAM106 was injected into the tail at a dose of 18 mg/kg. About 0.2 mL of blood (from the ophthalmic veins) was drawn at 0, 0.25, 0.5, 0.75, 1, 1.5, 2, 4, and 6 h. After that, 1.5 mL polyethylene tubes containing EDTA were used to collect the plasma. The blood samples were centrifuged at 19,800× g for 7 min after which the supernatant was collected and stored at −80 °C for further analysis.
A 10 µL volume of methanol was added to 100 µL of each plasma sample and vortexed for 3 s (3000 rpm). Then, the mixtures were vortexed for three seconds while receiving 10 µL of internal standard (3000 rpm). A volume of 350 µL acetonitrile was added to 100 µL of each plasma sample. The mixtures were vortexed for 1 min and centrifuged for 7 min at 19800 g. A 100 µL aliquot of the supernatant was stored and 5 µL was subjected to UHPLC–MS/MS analysis.
For the pharmacokinetic study, the chromatographic separation was carried out on an Acquity UHPLC BEH C18 column (2.1 × 75 mm, 1.7 µm) with a filter. The column oven was set at 35 °C. The mobile phase aqueous solution (A, containing 0.1% formic acid) and acetonitrile (B) worked within 0–3.5 min with 60% B. The injection volume was set at 5 µL, with a flow rate of 0.2 mL/min. By using the parallel reaction monitoring (PRM) mode, the CAM106 and internal standard were found. The following adjustments were made to the electrospray ionization (ESI) source parameters: high collision dissociation cell (HCD) energy, 27 eV (for CAM106) and 42 eV (for the IS); capillary temperature, 320 °C; S-lens RF level, 55 V; automatic gain control (AGC) target, 1e^6; maximum IT, 100 ms; spray voltage, 3.2 kV.

rats = assay: Observation of toxicity / adverse reactions in rats after dosing; format: in vivo, Sprague Dawley (SD) rats
[5] = Stability of CAM106 QC samples (rat plasma, stock solution) under different conditions; format: physicochemical; details: for Accuracy, autosampler stability 0 h / Accuracy, autosampler stability 4 h / Accuracy, autosampler stability 8 h / Accuracy, autosampler stability 12 h: autosampler 10 °C; for Accuracy, room temperature: room temperature 12 h; for Accuracy, stock solution 15 days: stock solution 15 days at −20 °C; for Accuracy, thaw: three freeze–thaw cycles; for Accuracy, long-term stability 1 day / Accuracy, long-term stability 7 days: −80 °C
Method: Three quality control (QC) concentrations of CAM106 were used for stability testing under five conditions: in the autosampler for 0, 4, 8, and 12 h; long-term stability at −80 °C for 1 and 7 days; stock solution for 15 days at −20 °C; at room temperature for 12 h; and three freeze–thaw cycles.
The stability tests were conducted with rat plasma containing CAM106 through the analysis of 3 replicates at 10.64, 106.38, and 638.30 ng/mL. This typically comprises short-term stability (room temperature), long-term stability (−80 °C), post-preparation stability (autosampler, 10 °C), and freeze–thaw cycle stability (room temper and −80 °C).

Water solubility = format: physicochemical
H3N2 = test system: H3N2; parameters: method as in PMID 22625417; details: read-out: IC50 for H3N2 virus; cited from earlier work
H1N1 = test system: H1N1; parameters: method as in PMID 22625417; details: read-out: IC50 for H1N1 virus; cited from earlier work
Kun Ming mice = test system: Kun Ming mice; parameters: method as in earlier work; details: 25 mg/kg; cited from earlier work
[6] = Metabolite identification in rat plasma, urine and feces by high-resolution mass spectrometry; details: √ found, × not found
[7] = IV 18.0 mg/kg, n = 6, mean ± SD
[8] = PO 180.0 mg/kg, n = 6, mean ± SD
[9] = male, Sprague Dawley, rat, plasma, IV 18.0 mg/kg, n = 6, mean ± SD
[10] = male, Sprague Dawley, rat, plasma, PO 180.0 mg/kg, n = 6, mean ± SD

C=C(C(=O)NCC1=CC(c2ccc(F)cc2)NO1)C1CCC(C)C2CC(=O)C(C)=C2C1 (stereo not drawn) [M8]
Detected in rat feces (F) [1]: √
Detected in rat urine (U) [1]: ×

C=C(C(=O)N(C)C)C1CCC(C)C2CC(=O)C(C)=C2C1 (stereo not drawn) [M4]
Detected in rat feces (F) [1]: √
Detected in rat urine (U) [1]: ×

C=C(C(N)=O)C1CCC(C)C2CC(=O)C(C)=C2C1 (stereo not drawn) [M1]
Detected in rat feces (F) [1]: √
Detected in rat urine (U) [1]: √

C=C(C(=O)O)[C@H]1CC[C@H](C)[C@@H]2CC(=O)C(C)=C2C1 [rupestonic acid, reference compound]
IC50 (influenza virus B [2]; read-out: IC50 for virus B): 116 µM

C=C(C(=O)NCc1cc(-c2ccc(F)cc2)no1)C1CC[C@H](C(=O)O)C2CC(=O)C(C)=C2C1 (stereo partly drawn) [M5]
Detected in rat feces (F) [1]: ×
Detected in rat urine (U) [1]: √

C=C(C(=O)NCc1cc(-c2ccc(F)cc2)no1)C1CCC(C)C2CC(=O)C(C)=C2C1 (stereo not drawn) [CAM106]
IC50 against influenza virus B relative to rupestonic acid (influenza virus B [3]): about 35 fold
AUC0–inf [4, 7]: 1287.93 ± 549.25 h·(ng/mL)
AUC0–t [4, 7]: 1255.32 ± 544.72 h·(ng/mL)
AUC0–inf [4, 8]: 294.19 ± 221.69 h·(ng/mL)
AUC0–t [4, 8]: 200.94 ± 87.45 h·(ng/mL)
Vd [4, 8]: 4,605,807.05 ± 2,044,928.13 mL/kg
clearance [4, 9]: 277 mL/min/kg
half-life [4, 9]: 1.34 ± 0.64 h
MRT inf [4, 9]: 0.79 ± 0.23 h
MRT last [4, 9]: 0.63 ± 0.17 h
Vd ([4]; male, Sprague Dawley, rat, plasma, IV 18.0 mg/kg, n = 6, mean ± SD, read-out: Vd): 27.4 L/kg
Cmax [4, 10]: 61 ± 30.8 ng/mL
Tmax [4, 10]: 1.21 ± 0.51 h
half-life [4, 10]: 4.56 ± 2.31 h
MRT inf [4, 10]: 6.69 ± 3.57 h
MRT last [4, 10]: 3.42 ± 0.73 h
bioavailability ([4]; male, Sprague Dawley, rat, plasma, oral, 180 mg/kg, PO 180.0 mg/kg versus IV 18.0 mg/kg, read-out: F (%), absolute (oral) bioavailability): ~1.6%
Cmax ([4]; male, Sprague-Dawley, rat, plasma, IV 18.0 mg/kg, n = 6, mean ± SD): 2310 ± 1000 ng/mL
Signs of toxicity (rats; 180 mg/kg oral and 18 mg/kg intravenous for 3 days): no signs of toxicity were observed
Adverse reactions or acute toxicity (rats; oral 180 mg/kg or intravenous 18 mg/kg): No adverse reactions or acute toxicity were observed
Accuracy, autosampler stability 0 h ([5]; 10.64 ng/mL): 95.02
Accuracy, autosampler stability 4 h ([5]; 10.64 ng/mL): 93.52
Accuracy, autosampler stability 8 h ([5]; 10.64 ng/mL): 91.35
Accuracy, autosampler stability 12 h ([5]; 10.64 ng/mL): 100.38
Accuracy, room temperature ([5]; 10.64 ng/mL): 96.71
Accuracy, stock solution 15 days ([5]; 10.64 ng/mL): 91.26
Accuracy, thaw ([5]; 10.64 ng/mL): 97.21
Accuracy, long-term stability 1 day ([5]; 10.64 ng/mL): 97.93
Accuracy, long-term stability 7 days ([5]; 10.64 ng/mL): 103.20
Accuracy, autosampler stability 0 h ([5]; 106.38 ng/mL): 106.05
Accuracy, autosampler stability 4 h ([5]; 106.38 ng/mL): 101.96
Accuracy, autosampler stability 8 h ([5]; 106.38 ng/mL): 101.46
Accuracy, autosampler stability 12 h ([5]; 106.38 ng/mL): 98.88
Accuracy, room temperature ([5]; 106.38 ng/mL): 101.12
Accuracy, stock solution 15 days ([5]; 106.38 ng/mL): 108.39
Accuracy, thaw ([5]; 106.38 ng/mL): 106.13
Accuracy, long-term stability 1 day ([5]; 106.38 ng/mL): 104.02
Accuracy, long-term stability 7 days ([5]; 106.38 ng/mL): 94.03
Accuracy, autosampler stability 0 h ([5]; 638.30 ng/mL): 100.00
Accuracy, autosampler stability 4 h ([5]; 638.30 ng/mL): 102.58
Accuracy, autosampler stability 8 h ([5]; 638.30 ng/mL): 97.09
Accuracy, autosampler stability 12 h ([5]; 638.30 ng/mL): 96.48
Accuracy, room temperature ([5]; 638.30 ng/mL): 102.21
Accuracy, stock solution 15 days ([5]; 638.30 ng/mL): 95.27
Accuracy, thaw ([5]; 638.30 ng/mL): 100.09
Accuracy, long-term stability 1 day ([5]; 638.30 ng/mL): 103.73
Accuracy, long-term stability 7 days ([5]; 638.30 ng/mL): 90.36
Solubility in water (Water solubility): poorly soluble in water; also recorded: weak water solubility
IC50 (H3N2): 1.09 µM
IC50 (H1N1): 0.97 µM
IC50 (influenza virus B [2]; read-out: IC50 for B virus): 3.25 µM
Toxic response (Kun Ming mice): no toxic response
Detected in rat feces (F) ([6]; rat feces 0–48 h after administration of CAM106): √
Detected in rat urine (U) ([6]; rat urine 0–48 h after administration of CAM106): √
